Patent publication US11033524B2, “Methods and compositions for treating disorders associated with cortico-hippocampal hyperactivity” (RAMOT AT TEL-AVIV UNIVERSITY LTD., priority 2016, dated 2021)
Entries after “also recorded” stand apart in the source; their conditions may differ.

What was measured:
[1] = tested on: hippocampal cultures; assay: firing rate homeostasis: baclofen perturbation in MEA cultures; type: cell-based
Procedure: The stable reduction in MFR induced by teriflunomide could have been the result of either impairment of homeostatic compensation mechanisms, or a change in a firing set-point value. A perturbation of firing rate in vivo results in re-normalization to its set-point level 2 days following perturbation through homeostatic mechanisms (Hengen et al., 2013). […] In order to determine the role DHODH inhibition in homeostatic process, we added 10 μM baclofen following 12 hr incubation with teriflunomide (FIG. 7).

[2] = tested on: hippocampal cultures; conditions: returns to baseline level after 2 days (Slomowitz et al., 2015); cited from earlier work
[3] = tested on: hippocampus; conditions: low-dose, MCI patients (Bakker et al., 2012); cited from earlier work
[4] = tested on: AD mouse models; conditions: AD mouse models (Sanchez et al., 2012); cited from earlier work
[5] = tested on: cultured hippocampal neurons; assay: multi-electrode array (MEA) recording of spiking activity / mean firing rate; type: cell-based; conditions: for effect of teriflunomide on MFR in DHODH knockdown cultures: 50 μM teriflunomide in shDHODH-infected cultures
From the text: In order to test how DHODH targeting affects neuronal activity, we examined the effect of the DHODH inhibitor teriflunomide on cultured hippocampal neurons grown on a multi-electrode chip (MEA) that allows a long-term monitoring of spiking activity from many neurons simultaneously (FIGS. 1A-1C).
In order to test the specificity of teriflunomide effect on firing rate, we used a lentiviral-based shRNA delivery system (shDHODH; TRCN0000294665, Sigma Aldrich) to knockdown DHODH expression in hippocampal cultures.
In order to test whether the change in MFR resulting from DHODH inhibition is induced by the reduction of available uridine (a precursor of pyrimidines) or results from a change in the mitochondrial function, we co-applied 100 μM uridine mono-phosphate with teriflunomide in MEA recordings.

[6] = tested on: hippocampal neurons; assay: intrinsic excitability: action potentials evoked by somatic current injections (F-I curves); type: cell-based; conditions: teriflunomide incubation
Procedure: Modulation of intrinsic excitability is an important facet of neuronal adaptation. In this experiment we elicited action potentials (APs) in response to increasing somatic current injections ranging from 0 to +500 pA (F-I curves) in the presence of postsynaptic receptor blockers (FIGS. 3A-3B). As found, teriflunomide induced a reduction in the maximal firing frequency from 31.4±2.29 Hz to 17.2±3.34 after 4 hr of incubation, and to 16.25±3.06 Hz after 2 days of incubation (FIGS. 3B-3C). Input resistance was not affected by teriflunomide application (FIGS. 3D-3E).

[7] = tested on: hippocampal neurons; assay: inhibition-excitation (I/E) ratio from sEPSCs and sIPSCs (integrated conductances GE, GI); type: cell-based
From the text: The inhibition-excitation (I/E) ratio constitutes an important factor in firing rate homeostasis, and in pathology of epilepsy. To assess the effects of DHODH inhibition on the I/E ratio, the spontaneous excitatory and inhibitory postsynaptic currents (sEPSCs, sIPSCs, respectively) were isolated at the same cell based on the reversal potentials of α-amino-3-hydroxy-5-methyl-4-isoxazolepropionic acid receptor (AMPAR)-mediated excitatory and GABAAR-mediated inhibitory currents, and the integrated excitatory (FIG. 4A) and inhibitory conductance's (GE, GI, respectively) were calculated (FIGS. 4B-4D).

[8] = tested on: hippocampal neurons; assay: mEPSC recording (excitatory quantal events); type: cell-based
Procedure: In this experiment we tested whether DHODH inhibition affects excitatory quantal events, by recording mEPSCs from hippocampal neurons under control conditions and 2 days following teriflunomide application (FIG. 5). As found, chronic teriflunomide incubation triggered a significant decrease of ˜26% in mEPSC amplitude (FIGS. 5A-5B).

[9] = tested on: pilocarpine-induced seizures; assay: pilocarpine model of TLE, behavioral seizure duration; type: in vivo; conditions: 15 mg/kg IP daily for 3 days, pilocarpine 330 mg/kg IP, C57 male mice, p=0.0157
From the text: In order to determine the potential therapeutic benefit of DHODH inhibition for epilepsy treatment, we used the pilocarpine model of TLE, which is one of the most common mouse models that recapitulates many aspects of the human pathology. The pilocarpine model of TLE appears to be highly isomorphic with the human disease including induction of acute status epilepticus, and latent period followed by the appearance of spontaneous recurrent seizures, as well as the occurrence of widespread lesions in the CNS (Curia et al., 2008). These features make it highly suitable for testing the efficacy of antiepileptic drugs (Leite et al., 2002). We performed intraperitoneal (IP) daily injections of teriflunomide (15 mg/kg) or vehicle for 3 days, in 6-week-old male mice of C57 background. On the third day, mice were injected subcutaneously (SC) with 2 mg/kg scopolamine to prevent peripheral effects, and 30 min later with 330 mg/kg pilocarpine IP. […] Because seizure duration correlates with hippocampal pathology in the pilocarpine model (Mazzuferi et al., 2012), these in vivo results emphasize the potential of DHODH inhibition as a therapeutic approach in the most common form of epilepsy.

[10] = tested on: CA3-CA1 synaptic transmission; assay: fEPSP recording in acute hippocampal slices
From the text: Having established an essential role of DHODH activity in regulating MFR and E/I balance in hippocampal cultures, we asked whether acute DHODH inhibition modulates basal synaptic transmission in a more intact preparation—acute hippocampal slices. We evoked electrical stimulation in CA3 axons, comprising the Schaffer Collateral (SC) pathway of the hippocampus, and recorded the extracellular field excitatory postsynaptic potentials (fEPSP) in the stratum radiatum. We estimated the effect of teriflunomide (50 μM) on basal CA3-CA1 synaptic transmission evoked by low frequency stimulation of 0.1 Hz.
Next, we examined how DHODH inhibition affects short-term synaptic plasticity evoked by high-frequency spike bursts. This type of plasticity plays an important role in working memory function.

[11] = tested on: CA3-CA1 hippocampal connections; assay: in vivo fEPSP recording after ICV injection; conditions: ICV 100 mM/1 μl daily for 3 days, bursts of 3 stimuli at 50 Hz, anesthetized mice
Procedure: Finally, we used intracerebroventricular (ICV) injection of teriflunomide to test its effect on hippocampal synaptic plasticity in vivo. For this, we injected teriflunomide (100 mM/1 μl daily) for 3 consecutive days and then performed electrophysiological fEPSP recording in vivo in anesthetized (2% isoflurane) mice. The recording electrodes were placed in the CA1 stratum radiatum, while the stimulating electrode was paced at the Schaffer Collateral fibers. We examined how inhibition of DHODH in the brain affects short-term synaptic plasticity in the hippocampus evoked by high-frequency spike bursts.

NCC(CC(=O)O)c1ccc(Cl)cc1 (stereo not drawn) [baclofen]
MFR acutely after baclofen ([1]; 10 μM baclofen added in the presence of teriflunomide): 0.3678±0.08 Hz
MFR stabilized over a 2-day period after baclofen ([1]; 10 μM baclofen in the presence of teriflunomide, 48 h): 2.00±0.35 Hz
firing rate after baclofen alone [2]: profound inhibition

CC[C@@H](C(N)=O)N1CCCC1=O [levetiracetam]
memory [3]: improvement
metabolic hyperactivity in the hippocampus [3]: reduces
brain hyperactivity [4]: reduces
cognitive impairments [4]: improves

C/C(O)=C(\C#N)C(=O)Nc1ccc(C(F)(F)F)cc1 [teriflunomide, (2Z)-2-cyano-3-hydroxy-N-[4-(trifluoromethyl)phenyl]but-2-enamide]
effect of teriflunomide on MFR in DHODH knockdown cultures [5]: did not produce long-term changes in MFR
effect of teriflunomide on MFR in DHODH knockdown cultures ([5]; listed as Teriflunomide): did not have a significant effect
neuronal mean firing rate (MFR) ([5]; 50 μM teriflunomide, after 4 h of application, baseline 3.95±0.27 Hz): 1.58±0.17 Hz
stability of the lower MFR induced by teriflunomide ([5]; 50 μM teriflunomide, time following application): stable for 14 hr
reduction in MFR with co-applied uridine ([5]; 100 μM uridine mono-phosphate co-applied with 50 μM teriflunomide, timescale of 2 days): does not occlude the reduction in maximum firing rate (MFR); also recorded: did not occlude the effect of teriflunomide on MFR; also recorded: did not occlude the reduction in MFR
input resistance (Rin) [6]: no change; also recorded: not affected
I/E ratio (GI/GE per neuron) ([7]; 4 hr to 2 days of teriflunomide incubation): elevated and remained high; also recorded: significant and stable increase
average integrated excitatory conductance (GE) ([7]; 2 days of teriflunomide incubation): remained lower for 2 days; also recorded: stable during 2 days of incubation
average integrated excitatory conductance (GE) ([7]; after 4 hr of teriflunomide incubation): dramatic decrease
integrated inhibitory conductance (GI) ([7]; after either 4 hr or 2 days of teriflunomide incubation): no significant change; also recorded: no significant reduction
decrease in mEPSC amplitude ([8]; 2 days teriflunomide incubation vs control): 26%
mEPSC frequency ([8]; 2 days teriflunomide incubation, p=0.08): not significantly affected; also recorded: did not reach statistical significance
MFR, new lower baseline value ([1]; 12 hr (overnight) incubation with 50 μM teriflunomide, original baseline 4.30±0.0.44 Hz): 2.50±0.38 Hz
behavioral seizure duration [9]: significantly reduces
fEPSP amplitude (basal CA3-CA1 transmission) ([10]; 50 μM teriflunomide, 0.1 Hz stimulation): gradual reduction
short-term synaptic facilitation (relative fEPSP amplitude within the burst) ([10]; bursts of 5 stimuli at 50 Hz, 30 min after teriflunomide): profoundly increased
short-term synaptic facilitation in vivo [11]: increase
